Compound: COC1=CC=C(C=C1)CN2C=CC3=C2C=C(C=C3)C(=O)NO + Cc1nc(Nc2ncc(C(=O)Nc3c(C)cccc3Cl)s2)cc(N2CCN(CCO)CC2)n1 [Dasatinib] (partner 0.075 µM)
Assay: relative viability (nuclei count vs DMSO), 5 days (fraction); higher = more cells survive
Settings: first compound 0.08 µM
How it was run: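 Lung cancer cell lines in 1536-well plates got either a single drug or a fixed anchor-drug dose together with five library-drug doses (not always all listed) in √10 steps, by pin tool, on the day after seeding. Nuclei were counted after 5 days, and relative viability is the treated-to-vehicle ratio of nuclei counts. Values are medians of duplicate plates.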

Which relative viability does the source give for NCI-H2342 here?
The relative viability was 0.297.

Which relative viability does the source give for NCI-H1623 here?
Its relative viability is 0.389.

Which relative viability does the source give for NCI-H1975 here?
The relative viability was 0.342.

With H3255 as the cell line, how does the relative viability read?
The relative viability was 0.41.

Which relative viability does the source give for NCI-H2023 here?
Its relative viability is 0.553.

Which relative viability does the source give for NCI-H2405 here?
Its relative viability is 0.209.

For SK-LU-1, which relative viability is on record?
The relative viability was 0.161.

How did the relative viability turn out when NCI-H1437 was run?
Its relative viability is 0.332.

For NCI-H596, which relative viability is on record?
Its relative viability is 0.588.

HCC-15 was tested. Which relative viability did it give?
The relative viability was 0.433.

NCI-H460 was tested. Which relative viability did it give?
Its relative viability is 0.545.

With EMC-BAC-2 as the cell line, how does the relative viability read?
Its relative viability is 0.324.

How did the relative viability turn out when NCI-H2009 was run?
Its relative viability is 0.281.

How did the relative viability turn out when COR-L 105 was run?
Its relative viability is 0.287.

Which relative viability does the source give for NCI-H1395 here?
Its relative viability is 0.394.

Which relative viability does the source give for NCI-H520 here?
The relative viability was 0.16.

Which relative viability does the source give for HCC-78 here?
The relative viability was 0.436.

How did the relative viability turn out when EKVX was run?
The relative viability was 0.552.

For NCI-H1650, which relative viability is on record?
The relative viability was 0.342.

For EPLC-272H, which relative viability is on record?
Its relative viability is 0.36.

How did the relative viability turn out when NCI-H1563 was run?
The relative viability was 0.435.

With NCI-H1792 as the cell line, how does the relative viability read?
The relative viability was 0.705.

Which relative viability does the source give for HCC-366 here?
Its relative viability is 0.483.

Same assay, conditions: first compound 0.253 µM

NCI-H2342 was tested. Which relative viability did it give?
The relative viability was 0.321.

For NCI-H1623, which relative viability is on record?
The relative viability was 0.487.

For LU99A, which relative viability is on record?
Its relative viability is 0.606.

With NCI-H1975 as the cell line, how does the relative viability read?
Its relative viability is 0.413.

With H3255 as the cell line, how does the relative viability read?
The relative viability was 0.417.

NCI-H2023 was tested. Which relative viability did it give?
Its relative viability is 0.596.

For NCI-H2405, which relative viability is on record?
Its relative viability is 0.214.

With SK-LU-1 as the cell line, how does the relative viability read?
The relative viability was 0.154.

How did the relative viability turn out when NCI-H1734 was run?
Its relative viability is 0.492.

NCI-H1437 was tested. Which relative viability did it give?
The relative viability was 0.339.

Which relative viability does the source give for ABC-1 here?
The relative viability was 0.566.

Which relative viability does the source give for NCI-H596 here?
Its relative viability is 0.614.

Which relative viability does the source give for HCC-15 here?
Its relative viability is 0.675.

With NCI-H460 as the cell line, how does the relative viability read?
The relative viability was 0.556.

With EMC-BAC-2 as the cell line, how does the relative viability read?
The relative viability was 0.333.

NCI-H2009 was tested. Which relative viability did it give?
Its relative viability is 0.284.

For COR-L 105, which relative viability is on record?
Its relative viability is 0.32.

How did the relative viability turn out when NCI-H1395 was run?
Its relative viability is 0.381.

With NCI-H520 as the cell line, how does the relative viability read?
Its relative viability is 0.228.

Which relative viability does the source give for NCI-H358 here?
The relative viability was 0.152.

For HCC-78, which relative viability is on record?
The relative viability was 0.362.

Which relative viability does the source give for EKVX here?
Its relative viability is 0.576.

With NCI-H1650 as the cell line, how does the relative viability read?
The relative viability was 0.292.

LK-2 was tested. Which relative viability did it give?
Its relative viability is 0.358.

For NCI-H1563, which relative viability is on record?
The relative viability was 0.485.

NCI-H1792 was tested. Which relative viability did it give?
Its relative viability is 0.841.

With HCC-366 as the cell line, how does the relative viability read?
The relative viability was 0.639.

Same assay, conditions: first compound 0.8 µM

For NCI-H2342, which relative viability is on record?
Its relative viability is 0.305.

NCI-H1623 was tested. Which relative viability did it give?
Its relative viability is 0.517.

How did the relative viability turn out when LU99A was run?
The relative viability was 0.649.

How did the relative viability turn out when NCI-H1975 was run?
The relative viability was 0.447.

For H3255, which relative viability is on record?
The relative viability was 0.348.

NCI-H2023 was tested. Which relative viability did it give?
The relative viability was 0.592.

With NCI-H2405 as the cell line, how does the relative viability read?
Its relative viability is 0.221.

With SK-LU-1 as the cell line, how does the relative viability read?
Its relative viability is 0.198.

NCI-H1734 was tested. Which relative viability did it give?
The relative viability was 0.547.

For NCI-H1437, which relative viability is on record?
The relative viability was 0.469.

With ABC-1 as the cell line, how does the relative viability read?
Its relative viability is 0.589.

For NCI-H596, which relative viability is on record?
The relative viability was 0.603.

For HCC-15, which relative viability is on record?
Its relative viability is 0.65.

Which relative viability does the source give for NCI-H460 here?
Its relative viability is 0.553.

For EMC-BAC-2, which relative viability is on record?
Its relative viability is 0.347.

With NCI-H2009 as the cell line, how does the relative viability read?
Its relative viability is 0.326.

For COR-L 105, which relative viability is on record?
The relative viability was 0.35.

How did the relative viability turn out when NCI-H1395 was run?
The relative viability was 0.431.

NCI-H520 was tested. Which relative viability did it give?
The relative viability was 0.213.

NCI-H358 was tested. Which relative viability did it give?
Its relative viability is 0.192.

With HCC-78 as the cell line, how does the relative viability read?
Its relative viability is 0.391.

How did the relative viability turn out when EKVX was run?
Its relative viability is 0.592.

For NCI-H1650, which relative viability is on record?
The relative viability was 0.317.

For EPLC-272H, which relative viability is on record?
Its relative viability is 0.434.

With LK-2 as the cell line, how does the relative viability read?
Its relative viability is 0.335.

How did the relative viability turn out when NCI-H1563 was run?
The relative viability was 0.436.

With NCI-H1792 as the cell line, how does the relative viability read?
The relative viability was 0.749.

Which relative viability does the source give for HCC-366 here?
Its relative viability is 0.658.

Same assay, conditions: first compound 2.53 µM

NCI-H2342 was tested. Which relative viability did it give?
The relative viability was 0.304.

For NCI-H1623, which relative viability is on record?
The relative viability was 0.525.

With LU99A as the cell line, how does the relative viability read?
Its relative viability is 0.711.

NCI-H1975 was tested. Which relative viability did it give?
Its relative viability is 0.359.

With H3255 as the cell line, how does the relative viability read?
The relative viability was 0.389.

Which relative viability does the source give for NCI-H2023 here?
Its relative viability is 0.577.

For NCI-H2405, which relative viability is on record?
The relative viability was 0.196.

Which relative viability does the source give for SK-LU-1 here?
Its relative viability is 0.21.

How did the relative viability turn out when NCI-H1734 was run?
Its relative viability is 0.536.

For NCI-H1437, which relative viability is on record?
Its relative viability is 0.466.

How did the relative viability turn out when ABC-1 was run?
Its relative viability is 0.676.

How did the relative viability turn out when NCI-H596 was run?
Its relative viability is 0.558.

How did the relative viability turn out when HCC-15 was run?
Its relative viability is 0.626.

How did the relative viability turn out when NCI-H460 was run?
The relative viability was 0.48.

EMC-BAC-2 was tested. Which relative viability did it give?
The relative viability was 0.357.

How did the relative viability turn out when NCI-H2009 was run?
The relative viability was 0.276.

With COR-L 105 as the cell line, how does the relative viability read?
Its relative viability is 0.323.

NCI-H1395 was tested. Which relative viability did it give?
Its relative viability is 0.446.

Which relative viability does the source give for NCI-H520 here?
Its relative viability is 0.232.

NCI-H358 was tested. Which relative viability did it give?
The relative viability was 0.157.

With HCC-78 as the cell line, how does the relative viability read?
The relative viability was 0.449.

EKVX was tested. Which relative viability did it give?
Its relative viability is 0.709.

For NCI-H1650, which relative viability is on record?
The relative viability was 0.351.

With EPLC-272H as the cell line, how does the relative viability read?
Its relative viability is 0.389.

With LK-2 as the cell line, how does the relative viability read?
The relative viability was 0.298.

With NCI-H1563 as the cell line, how does the relative viability read?
Its relative viability is 0.433.

How did the relative viability turn out when NCI-H1792 was run?
The relative viability was 0.726.

With HCC-366 as the cell line, how does the relative viability read?
Its relative viability is 0.526.

Same assay, conditions: first compound 8 µM

For NCI-H2342, which relative viability is on record?
Its relative viability is 0.313.

NCI-H1623 was tested. Which relative viability did it give?
The relative viability was 0.418.

With LU99A as the cell line, how does the relative viability read?
Its relative viability is 0.439.

How did the relative viability turn out when NCI-H1975 was run?
Its relative viability is 0.325.

With H3255 as the cell line, how does the relative viability read?
The relative viability was 0.276.

For NCI-H2023, which relative viability is on record?
The relative viability was 0.439.

With NCI-H2405 as the cell line, how does the relative viability read?
Its relative viability is 0.177.

With SK-LU-1 as the cell line, how does the relative viability read?
Its relative viability is 0.164.

How did the relative viability turn out when NCI-H1734 was run?
Its relative viability is 0.382.

For NCI-H1437, which relative viability is on record?
The relative viability was 0.395.

For ABC-1, which relative viability is on record?
Its relative viability is 0.488.

For NCI-H596, which relative viability is on record?
The relative viability was 0.465.

Which relative viability does the source give for HCC-15 here?
The relative viability was 0.586.

Which relative viability does the source give for NCI-H460 here?
Its relative viability is 0.343.

How did the relative viability turn out when EMC-BAC-2 was run?
Its relative viability is 0.298.

Which relative viability does the source give for NCI-H2009 here?
The relative viability was 0.197.

How did the relative viability turn out when COR-L 105 was run?
The relative viability was 0.237.

With NCI-H1395 as the cell line, how does the relative viability read?
Its relative viability is 0.35.

How did the relative viability turn out when NCI-H520 was run?
Its relative viability is 0.281.

NCI-H358 was tested. Which relative viability did it give?
Its relative viability is 0.126.

Which relative viability does the source give for HCC-78 here?
The relative viability was 0.39.

Which relative viability does the source give for EKVX here?
The relative viability was 0.568.

NCI-H1650 was tested. Which relative viability did it give?
Its relative viability is 0.254.

Which relative viability does the source give for EPLC-272H here?
Its relative viability is 0.199.

How did the relative viability turn out when LK-2 was run?
Its relative viability is 0.293.

With NCI-H1563 as the cell line, how does the relative viability read?
The relative viability was 0.399.

From the supplement of paper PMC10307832
